Measured values taken from patent US20180325947A1, “USE OF MAPK INHIBITORS TO REDUCE LOSS OF HEMATOPOIETIC STEM CELLS DURING EX VIVO CULTURE AND/OR GENETIC MANIPULATION” (Children's Hospital Medical Center, priority 2015, published 2018).
“Also recorded” adds a separate entry of the source.

Experiments:
[1] = system: human HSCs (CD34+ 38- 90+ 45RA- 49f+); test: percent phenotypic hHSC in ex vivo cultured CD34+ cells, flow cytometry; format: cell-based; details: for percent hHSCs ex vivo in culture: ex vivo culture up to 72 hours
Protocol: Four different p38 inhibitors all increase the percent hHSCs ex vivo in culture studies up to 72 hours.
(§1) Human CD34^+ cells were cultured and transduced as described in FIG. 13, panel A. Harvested cells were stained with trypan blue for viability, total CD34+ cell number (Panel A), fold change in percent human CD34^+ 38^− 90^+ 45RA^− 49f^+ (HSCs) (Panel B), percent annexin V^+ (apoptotic) CD34^+38^− 90^+ cells (Panel C), fold change in transduction efficiency (based on GFP marker percentage) over non-treated CD34^+38^− 90^+ cells (Panel D), fold change in MitoSOX MFI in CD34^+38^− 90^+ cells are shown (Panel E). Data represents mean±SEM. Statistics: Student's t test, […], *p<0.05, **p<0.01, ***p<0.001.

[2] = system: human CD33+ myeloid, CD19+ B-lymphoid and CD34+ HSPC progeny; test: multi-lineage reconstitution (myeloid skewing) in 1T NSG mice 24 weeks post transplantation; format: in vivo
Protocol: FIG. 2. A preclinical model for studying adult human HSC ex vivo manipulation and gene transfer and its effect on LTRP. (Panel A) Freshly isolated or thawed mobilized peripheral blood (MPB) derived CD34+ cells were utilized for the study. Two different protocols were utilized for the study where lentivirus (LV) or γ-Retrovirus (RV) mediated gene transfer was performed at indicated time points. 0 h, 18-24 h, 36-42 h, and 72-96 h indicates the total amount of time where cells were exposed in the ex vivo culture after CD34 isolation before injection into NSG mice. (Panel B) After indicated time in culture and transduction, 1 million CD34+ starting equivalent cells were transplanted per NSG mouse after TBI intravenously (primary transplant=1T). Primary human engraftment and multi-lineage reconstitution was analyzed in mice at indicated time periods after bone marrow harvest at 6 and 12 weeks (wks) from left and right femurs, and after sacrifice at 24 wks, from all bones. A portion of cells were analyzed for FACS and the rest were depleted of mouse CD45+ cells and transplanted one to one, into secondary mice (secondary transplant=2T).
Human MPB derived CD34^+ cells either fresh or thawed were cultured and transduced with lentivirus (LV) or retrovirus (RV) expressing GFP for the indicated time points. Cells were harvested and phospho-p38MAPK was detected by flow cytometry. […] Data expressed as mean±SEM from 5 independent experiments (n=12-21 mice per group). […]
Next, the multi-lineage reconstitution was analyzed at 6, 12 and 24 weeks in BM of 1T animals, both of the untransduced (GFP^−) versus transduced (GFP^+) progeny. […]

[3] = system: human CD34+ cells; test: total CD34+ cell number / viability, trypan blue; format: cell-based; details: with or without p38i
Protocol: as §1

[4] = system: human CD34+38-90+ cells; test: apoptosis, annexin V+ CD34+38-90+ cells; format: cell-based; details: with or without p38i
Protocol: as §1

Cc1ccc(-n2nc(C(C)(C)C)cc2NC(=O)Nc2ccc(OCCN3CCOCC3)c3ccccc23)cc1 [BIRB-796, 1-[5-tert-butyl-2-(4-methylphenyl)pyrazol-3-yl]-3-[4-(2-morpholin-4-ylethoxy)naphthalen-1-yl]urea]
human HSCs in vitro ([1]; at 400, 600 and 800 nm concentrations): appeared to increase
percent hHSCs ex vivo in culture [1]: significant increase
percent hHSCs ex vivo in culture ([1]; listed as p38i): increased
loss of stem cells during in vitro or ex vivo culture ([1]; stem cells having undergone genetic manipulation that induces a DNA double strand break): successfully reduced
myeloid skewing phenotype (overall) ([2]; 1T mice 24 weeks post transplantation, listed as p38i): significantly revert this phenotype but only partially; also recorded: partially reverts
myeloid lineage skewing ([2]; 72-96 h RV group): some improvement
myeloid lineage skewing ([2]; HSPC transduced within the first 24 h with LV, cultures up to 72-96 h): restored to levels similar to untransduced cells or 0 h controls
total number of CD34+ cells or their viability [3]: no significant change
apoptosis in CD34+38-90+ population [4]: no difference
